# Test results published in patent publication US20130131321A1, “LIGANDS FOR ANTIBODY AND Fc-FUSION PROTEIN PURIFICATION BY AFFINITY CHROMATOGRAPHY” (GRAFFINITY PHARMACEUTICALS GMBH, priority 2010, published 2013).
# Experiments:
# full length Bevacizumab = experiment: SPR screening of chemical microarrays, full length Bevacizumab; type: binding, humanized; conditions: chemical microarray, immobilized ligand
# Excerpt: Graffinity has developed high density chemical microarrays comprising thousands of small molecules immobilized onto gold chips. The arrays are constructed using maleimide-thiol coupling chemistry in combination with high density pintool spotting. For the construction, glass plates are microstructured by photolithographical methods in order to define up to 9,216 sensor fields per array. A subsequently applied gold coating provides the basis for the SPR effect and enables the formation of a binary, mixed self assembled monolayer (SAM) of two different thiols. […]
# Surface plasmons are collective oscillations of electrons at a metal surface which can be resonantly excited by polarized light of appropriate wavelength and incidence angle. […] Processes which alter the local refractive index in close proximity to the metal surface (such as antibody binding to the immobilized ligands) can therefore be monitored sensitively. […] While scanning over a range of wavelengths covering the SPR resonance conditions, reflection images are recorded stepwise. […]
# The experimental results of the microarray screening campaigns were analyzed by manual hit selection using in-house developed software routines as well as by an in-depth data analysis by commercially available data mining tools. […]
# Palivizumab = experiment: Microtiter plate chromatography of resins, Palivizumab (bound, yield); type: binding, humanized
# Bevacizumab Fc fragment = experiment: Microtiter plate chromatography of resins, Bevacizumab Fc fragment (bound); type: binding, humanized
# Method: Resins were assessed in packed mode by microtiter plate chromatography. For each column, approximately 30 μl of resin were transferred to a 384-well filter plate and sealed with appropriate top frits.
# Columns were equilibrated with 6.7 column volumes (cv) of phosphate buffered saline (0.15 M NaCl, 20 mM sodium phosphate, pH 7.3; PBS) prior to injection. Either 3.3 cv of whole IgGs dissolved at 0.75 mg ml^−1, Fab or Fc fragments dissolved at 0.25 mg ml^−1 (all three in PBS) or host cell proteins (HCP) were injected onto columns. Antibody fragments of Bevacizumab (Fab and Fc) were prepared by cleavage of whole IgG with papain protease (3) according to the protocol of the manufacturer. […] Volumes transferred were spun through columns at 50 g for 1-2 min. During injection of samples, acceleration was reduced to 10 g and centrifugation time increased to 5-10 min. Effluent fractions were collected in 384-well plates and concentrations of protein analyzed by Bradford assay. Protein masses mi, mft and me (see below) were calculated as the product of fraction volume and measured protein concentration.
# The fraction of ‘bound’ protein was calculated as the difference between the total mass of protein injected mi and the mass of protein detected in the flowthrough mft, divided by the total mass of protein injected.
# the fraction of ‘bound’ protein and the ‘yield’ of protein were calculated for each resin based on data for whole IgG-antibodies. In the case of Bevacizumab fragments and host cell proteins, only the fraction of ‘bound’ protein is given. Selectivity of resins was calculated from data for Bevacizumab Whole IgG and host cell proteins. Due to limited experimental precision, selectivity was truncated beyond values of 10.
# Bevacizumab = target: T1, Bevacizumab (Homo sapiens, UniProt P01857); experiment: Dynamic and equilibrium binding capacity by column chromatography; set-up: species or system humanized; conditions: 1 mg ml^−1 Bevacizumab
# T1 construct: fused on or other part: humanised anti-VEGF-A VH domain N-terminal of the gamma-1 constant region (engineered, no UniProt entry)
# Method: Dynamic binding capacities were determined by column chromatography with purified Bevacizumab. Resins were packed into analytical columns of 25 mm length and 3 mm inner diameter. Columns were fed with 1 mg ml^−1 antibody in phosphate-buffered saline (150 mM NaCl, 20 mM phosphate buffer, pH 7.3) at constant flow rate, while the concentration of antibody in effluents was monitored online via absorbance at 280 nm. Antibody was loaded until effluent concentration reached at least 10% of the feed concentration. Dynamic binding capacities were determined at a flow rate of 50 cm h^−1, corresponding to 3 min empty column residence time. Equilibrium capacities were also determined at a flow rate of 50 cm h^−1 by loading until complete breakthrough of antibody. […]
# ‘Dynamic capacity’ was defined as the amount of antibody that can be injected onto a column at constant flow rate until the effluent concentration reaches 10% of the feed concentration. It was calculated as the time t0.1 after which 10% breakthrough occurred, multiplied by the flow rate F and feed concentration cf.
# Equilibrium capacity is defined as the maximum amount of antibody that binds to a column for a given feed stream concentration. It was calculated by evaluation of the following integral
# The integral was evaluated numerically. […]
smiles,measurement,setting,value
"COc1ccc(NC(=O)c2cc(-c3ccco3)n(C)n2)cc1C(=O)NCCCN [Ligand L1, 5-[5-(2-Furyl)-1-methylpyrazol-3-yl]carboxamido-2-methoxybenzoic acid N-(3-aminopropyl)amide]",SPR binding to full length Bevacizumab,full length Bevacizumab,distinct binding
same,Palivizumab Bound (%),Palivizumab,100%
same,Palivizumab Yield (%),Palivizumab,92%
same,Bevacizumab Fc Bound (%),Bevacizumab Fc fragment; Bevacizumab Fc fragment,100%
same,binding of Bevacizumab Fc-fragment,Bevacizumab Fc fragment; Fc 0.25 mg ml^-1 in PBS,bound the Fc-fragment
same,Dynamic Capacity,"Bevacizumab; 50 cm h^−1, 10% breakthrough",20.2 mg per ml of resin
same,Equilibrium Capacity,"Bevacizumab; 50 cm h^−1, complete breakthrough",25.7 mg per ml of resin
